# Experiments:
# [1] = system: painful, inflammatory or allergic disorders; details: compositions containing civamide; from U.S. Pat. No. 5,063,060; cited from earlier work
# [2] = system: patients with episodic cluster headache; assay: Episodic cluster headache patients, 0.01% civamide metered nasal spray twice daily for seven days, six-week follow-up; assay type: in vivo, human; details: 0.01% civamide in aqueous vehicle, 7 days
# Description: Patients with episodic cluster headache were treated with 0.01% civamide in an aqueous vehicle delivered by metered nasal spray twice daily for seven days. The patients were then followed for an additional six weeks after treatment.
# [3] = system: patients with episodic cluster headaches; assay: Episodic cluster headache patients, 0.025% civamide intranasally once daily for seven days, three-week follow-up; assay type: in vivo, human; details: 0.1 ml of 0.025% civamide in aqueous vehicle, each nostril, 7 days
# Description: Patients with episodic cluster headaches were treated with 0.1 ml of 0.025% civamide in an aqueous vehicle given once daily intranasally to each nostril for seven days. Following completion of the seven-day treatment period, cluster headache patients were followed for another three weeks during which they received no treatment.
# [4] = system: patients with long-standing painful osteoarthritis of the knees; assay: Painful osteoarthritis of the knees, 0.075% civamide cream three times daily for two to four weeks, then discontinued; assay type: in vivo, human; details: 0.075% civamide in cream vehicle, topical
# From the text: Patients with long-standing painful osteoarthritis of the knees applied 0.075% civamide in a cream vehicle three times daily for two to four weeks, and then the medication was discontinued. Relief of painful osteoarthritis continued for as long as 2–4 months after discontinuing the medication.
structure (smiles),measurement,setting,value
"COc1cc(CNC(=O)CCCC/C=C\C(C)C)ccc1O [civamide, cis-8-methyl-N-vanillyl-6-nonenamide]",Efficacy compared with compositions containing capsaicin,[1],comparable in efficacy to compositions containing capsaicin
same,Local adverse effects compared with capsaicin,[1],significantly less local adverse effects normally associated with capsaicin
same,Frequency of cluster headache over follow-up,[2]; six weeks follow-up,declined continuously over the six-week period
same,Reduction in headaches during week six,[2]; week six after treatment,~65%
same,Headache frequency three weeks after treatment versus during or immediately after treatment,[3]; three weeks after completion,lower three weeks following completion of treatment than during or immediately after the treatment period
same,Frequency of cluster headaches after completion of treatment,[3]; three weeks follow-up without treatment,decreased continuously over the three weeks following completion of the short course (7 days) of treatment
same,Duration of relief of painful osteoarthritis after discontinuing the medication,[4],2–4 months

# — patent publication US7244446B2, “Method for providing long-lasting pain diminishment through topical or intranasal administration of civamide” (Winston Laboratories, Inc., priority 2003, dated 2007)
